Test results from US20140194499A1, “Polyprenylated Benzoylphloroglucinols With Anticancer Activity” (Hong Kong Baptist University, priority 2013, published 2014).
Like-named read-outs stand apart in the source and are kept apart here.

What was measured:
Format in all cases: cell-based
[1] = system: SMMC-7721 (human hepatocellular carcinoma); assay: MTT cytotoxicity assay, SMMC-7721; conditions: SMMC-7721 cells
Procedure: (§1) In the present invention, garciesculentones A and C (compounds 1 and 2) are evaluated for their cytotoxicity against two human hepatoma carcinoma (SMMC-7721 and HepG2) and two human breast adenocarcinoma cell lines (MCF-7 and MDA-MB-231) using MTT assay, palcitaxel is used as positive control. […] In practice, an effective concentration of the tested compound to kill a target cancer cell in vitro is normally about double of the corresponding IC50 value. In addition, wound healing assay is conducted to test whether two novel compounds could affect cell motility.
(§2) Cytotoxicity Assay. Cytotoxic activities of all isolates were evaluated by MTT assay using SMMC-7721 (human hepatocellular carcinoma), HepG2 (human hepatocellular carcinoma), MCF-7 (human breast adenocarcinoma), and MDA-MB-231 (human breast adenocarcinoma). Paclitaxel was used as positive control. The detailed methodology for cytotoxicity assay has already been described in a previous report in Xia, Z.-X.; Zhang, D.-D.; Liang, S.; Lao, Y.-Z.; Zhang, H.; Tan, H.-S.; Chen, S.-L.; Wang, X.-H.; Xu, H.-X., Bioassay-Guided Isolation of Prenylated Xanthones and Polycyclic Acylphloroglucinols from the Leaves of Garcinia nujiangensis. Journal of Natural Products 2012.

[2] = system: HepG2 (human hepatocellular carcinoma); assay: MTT cytotoxicity assay, HepG2; conditions: HepG2 cells, read-out: Cytotoxicity IC50, HepG 2
Procedure: as §1, §2

[3] = system: MCF-7 (human breast adenocarcinoma); assay: MTT cytotoxicity assay, MCF-7
Procedure: as §1, §2

[4] = system: MDA-MB-231 (human breast adenocarcinoma); assay: MTT cytotoxicity assay, MDA-MB-231; conditions: MDA-MB-231 cells
Procedure: as §1, §2

[5] = system: human esophageal carcinoma (ECA109) cells; assay: Wound healing assay (cell migration); conditions: 10 and 20 μg/mL, 36 hours
Procedure: as §1
Wound healing assay. A wound healing assay was performed by using a modified procedure described previously in Jones, J. I.; Gockerman, A.; Busby, W. H., Jr.; Wright, G.; Clemmons, D. R., Insulin-like growth factor binding protein 1 stimulates cell migration and binds to the alpha 5 beta 1 integrin by means of its Arg-Gly-Asp sequence. Proc Nall Acad Sci USA 1993, 90 (22), 10553-7. Briefly, cells were plated in 24 wells plate at 70% confluence in conditioned medium. […] Cell migration into the wound surface was monitored by Olympus 1X71 microscopy and digitally photographed.

Q: What does the source list for `CC(C)=CC[C@H]1C[C@@]23C[C@H](CC=C(C)C)C(C)(C)[C@@](CC=C(C)C)(C(=O)C(OC(=O)c4ccc(O)c(O)c4)=C2OC1(C)C)C3=O` (relative stereo) [Compound 1, Garciesculentone A]?
A: IC50 [1]: 10.8 µM; IC50 [2]: 43.2 µM; IC50 ([3]; MCF-7 cells): 20.3 µM; IC50 [4]: 16.4 µM; Cell migration into the wound area (antimigration effect) [5]: do not migrate into and completely close the wound

Q: With `CC(=O)O[C@H]1C(=O)[C@@]2(C)[C@H]([C@H](OC(=O)c3ccccc3)[C@]3(O)C[C@H](OC(=O)[C@H](O)[C@@H](NC(=O)c4ccccc4)c4ccccc4)C(C)=C1C3(C)C)[C@]1(OC(C)=O)CO[C@@H]1C[C@@H]2O` [Palcitaxel, Paclitaxel, reference compound] as the molecule, how does the IC50 ([1]; Homo sapiens) read?
A: 0.0091 µM

Q: And the IC50 ([2]; Homo sapiens)?
A: 0.0046 µM

Q: What about the IC50 ([3]; Homo sapiens, MCF7, MCF-7 cells) of the same molecule?
A: 0.0015 µM

Q: What about the IC50 ([4]; Homo sapiens) of the same molecule?
A: 0.0082 µM

Q: How did the IC50 [1] turn out when Garciesculentone C [Compound 2] was run?
A: 17.5 µM

Q: And the IC50 [2]?
A: 21.9 µM

Q: And the IC50 ([3]; MCF-7 cells)?
A: 11.1 µM

Q: What about the IC50 [4] of the same molecule?
A: 21.5 µM

Q: What about the “Cell migration into the wound area (antimigration effect)” value [5] of the same molecule?
A: do not migrate into and completely close the wound
